From US9175003B2, “Substituted azoanthracene derivatives and intermediates for preparation thereof” (TransTech Pharma, LLC, priority 2009, dated 2015)

Molecular target: human GLP-1 receptor (Homo sapiens (Human), UniProt P43220)
Conditions: read-out: Mean EC50; cAMP, HTRF detection, 30 min at 37° C., HEK-293 cells expressing cloned human GLP-1 receptor

Chain of human GLP-1 receptor (P43220 24-463): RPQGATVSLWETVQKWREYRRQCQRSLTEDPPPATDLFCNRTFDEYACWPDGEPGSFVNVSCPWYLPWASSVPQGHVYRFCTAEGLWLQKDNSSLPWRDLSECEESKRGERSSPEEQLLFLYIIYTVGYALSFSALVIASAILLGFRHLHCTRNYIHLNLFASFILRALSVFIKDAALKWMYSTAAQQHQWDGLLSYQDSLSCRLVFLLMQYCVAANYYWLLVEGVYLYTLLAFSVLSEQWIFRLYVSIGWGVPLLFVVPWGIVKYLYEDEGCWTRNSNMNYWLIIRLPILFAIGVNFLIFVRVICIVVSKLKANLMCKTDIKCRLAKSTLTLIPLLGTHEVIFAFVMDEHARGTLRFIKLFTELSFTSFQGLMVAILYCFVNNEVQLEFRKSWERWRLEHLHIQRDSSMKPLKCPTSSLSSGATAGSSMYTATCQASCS

Q: `Cc1nccc(-c2ccc(C[C@H](NC(=O)[C@@H]3Cc4cc5c(cc4CN3C(=O)c3ccn(C)n3)O[C@@H](c3ccc(OCc4ccc(Cl)c(Cl)c4)cc3)CO5)C(=O)O)cc2)c1C` [Example 324, (S)-2-{[(3S,8S)-3-[4-(3,4-Dichloro-benzyloxy)-phenyl]-7-(1-methyl-1H-pyrazole-3-carbonyl)-2,3,6,7,8,9-hexahydro-[1,4]dioxino[2,3-g]isoquinoline-8-carbonyl]-amino}-3-[4-(2,3-dimethyl-pyridin-4-yl)-phenyl]-propionic acid] was tested. Which EC50 did it give?
A: 126 nM

Q: Which EC50 does the source give for `Cc1nccc(Oc2ccc(C[C@H](NC(=O)[C@@H]3Cc4cc5c(cc4CN3C(=O)N[C@H](C)c3ccc(F)cc3)O[C@@H](c3ccc(OCc4ccc(Cl)c(Cl)c4)cc3)CO5)C(=O)O)cc2)c1C` [Example 337, (S)-2-({(3S,8S)-3-[4-(3,4-Dichloro-benzyloxy)-phenyl]-7-[(R)-1-(4-fluoro-phenyl)-ethylcarbamoyl]-2,3,6,7,8,9-hexahydro-[1,4]dioxino[2,3-g]isoquinoline-8-carbonyl}-amino)-3-[4-(2,3-dimethyl-pyridin-4-yloxy)-phenyl]-propionic acid] here?
A: 145 nM

Q: Which EC50 does the source give for `Cc1cccc(C(=O)N2Cc3cc4c(cc3C[C@H]2C(=O)N[C@@H](Cc2ccc(-c3ccnc(C)c3C)cc2)C(=O)O)OC[C@H](c2ccc(OCc3ccc(Cl)c(Cl)c3)cc2)O4)c1` [Example 157, (S)-2-{[(3S,8S)-3-[4-(3,4-Dichloro-benzyloxy)-phenyl]-7-(3-methyl-benzoyl)-2,3,6,7,8,9-hexahydro-[1,4]dioxino[2,3-g]isoquinoline-8-carbonyl]-amino}-3-[4-(2,3-dimethyl-pyridin-4-yl)-phenyl]-propionic acid] here?
A: 34 nM

Q: For `Cc1nc(C(=O)N2Cc3cc4c(cc3C[C@H]2C(=O)N[C@@H](Cc2ccc(-c3ccnc(C)c3C)cc2)C(=O)O)OC[C@H](c2ccc(OCc3ccc(Cl)c(Cl)c3)cc2)O4)co1` [Example 431, (S)-2-{[(3S,8S)-3-[4-(3,4-Dichloro-benzyloxy)-phenyl]-7-(2-methyl-oxazole-4-carbonyl)-2,3,6,7,8,9-hexahydro-[1,4]dioxino[2,3-g]isoquinoline-8-carbonyl]-amino}-3-[4-(2,3-dimethyl-pyridin-4-yl)-phenyl]-propionic acid], which EC50 is on record?
A: 31 nM

Q: With `Cc1ccc(C(=O)N2Cc3cc4c(cc3C[C@H]2C(=O)N[C@@H](Cc2ccc(-c3ccnc(C)c3C)cc2)C(=O)O)OC[C@H](c2ccc(OCc3ccc(Cl)c(Cl)c3)cc2)O4)s1` [Example 329, (S)-2-{[(3S,8S)-3-[4-(3,4-dichloro-benzyloxy)-phenyl]-7-(5-methyl-thiophene-2-carbonyl)-2,3,6,7,8,9-hexahydro-[1,4]dioxino[2,3-g]isoquinoline-8-carbonyl]-amino}-3-[4-(2,3-dimethyl-pyridin-4-yl)-phenyl]-propionic acid] as the compound, how does the EC50 read?
A: 81 nM

Q: For `CC[C@@H](c1ccccc1)N1Cc2cc3c(cc2C[C@H]1C(=O)N[C@@H](Cc1ccc(-c2ccnc(C)c2C)cc1)C(=O)O)OC[C@H](c1ccc(OC2CCCCC2)cc1)O3` [Example 164, (S)-2-{[(3S,8S)-3-(4-Cyclohexyloxy-phenyl)-7-((S)-1-phenyl-propyl)-2,3,6,7,8,9-hexahydro-[1,4]dioxino[2,3-g]isoquinoline-8-carbonyl]-amino}-3-[4-(2,3-dimethyl-pyridin-4-yl)-phenyl]-propionic acid], which EC50 is on record?
A: 62 nM

Q: Which EC50 does the source give for `Cc1nccc(-c2ccc(C[C@H](NC(=O)[C@@H]3Cc4cc5c(cc4CN3C(=O)OC(C)(C)C)O[C@H](c3ccc(OCc4ccc(Cl)c(Cl)c4)cc3)CO5)C(=O)O)cc2)c1C` [Example 427, (3R,8S)-8-{(S)-1-Carboxy-2-[4-(2,3-dimethyl-pyridin-4-yl)-phenyl]-ethylcarbamoyl}-3-[4-(3,4-dichloro-benzyloxy)-phenyl]-2,3,8,9-tetrahydro-6H-[1,4]dioxino[2,3-g]isoquinoline-7-carboxylic acid tert-butyl ester] here?
A: 84 nM

Q: How did the EC50 turn out when `Cc1nccc(-c2ccc(C[C@H](NC(=O)[C@@H]3Cc4cc5c(cc4CN3C(=O)Nc3ccccn3)O[C@@H](c3ccc(OCc4ccc(Cl)c(Cl)c4)cc3)CO5)C(=O)O)cc2)c1C` [Example 258, (S)-2-{[(3S,8S)-3-[4-(3,4-dichloro-benzyloxy)-phenyl]-7-(pyridin-2-ylcarbamoyl)-2,3,6,7,8,9-hexahydro-[1,4]dioxino[2,3-g]isoquinoline-8-carbonyl]-amino}-3-[4-(2,3-dimethyl-pyridin-4-yl)-phenyl]-propionic acid] was run?
A: 251 nM

Q: Which EC50 does the source give for `Cc1nccc(-c2ccc(C[C@H](NC(=O)[C@@H]3Cc4cc5c(cc4CN3C(=O)OC(C)C)O[C@@H](c3ccc(OCc4ccc(Cl)c(Cl)c4)cc3)CO5)C(=O)O)cc2)c1C` [Example 293, (3S,8S)-8-{(S)-1-Carboxy-2-[4-(2,3-dimethyl-pyridin-4-yl)-phenyl]-ethylcarbamoyl}-3-[4-(3,4-dichloro-benzyloxy)-phenyl]-2,3,8,9-tetrahydro-6H-[1,4]dioxino[2,3-g]isoquinoline-7-carboxylic acid isopropyl ester] here?
A: 261 nM

Q: Which EC50 does the source give for `CC[C@@H](c1ccccc1)N1Cc2cc3c(cc2C[C@H]1C(=O)N[C@@H](Cc1ccc(Oc2ccncc2)cc1)C(=O)O)OC[C@H](c1ccc(OCc2ccc(Cl)c(Cl)c2)cc1)O3` [Example 184] here?
A: 74 nM

Q: Which EC50 does the source give for `Cn1ccnc1CN1Cc2cc3c(cc2C[C@H]1C(=O)N[C@@H](Cc1ccc(-c2ccc(C#N)cc2)cc1)C(=O)O)OCC(c1ccc(OCc2ccc(Cl)c(Cl)c2)cc1)O3` (stereo in doubt) [Example 40, (S)-3-(4′-Cyano-biphenyl-4-yl)-2-{[(S)-3-[4-(3,4-dichloro-benzyloxy)-phenyl]-7-(1-methyl-1H-imidazol-2-ylmethyl)-2,3,6,7,8,9-hexahydro-[1,4]dioxino[2,3-g]isoquinoline-8-carbonyl]-amino}-propionic acid] here?
A: 310 nM

Q: Which EC50 does the source give for `Cc1nccc(-c2ccc(C[C@H](NC(=O)[C@@H]3Cc4cc5c(cc4CN3C(=O)Nc3ccc(F)c(F)c3)O[C@@H](c3ccc(OCc4ccc(Cl)c(Cl)c4)cc3)CO5)C(=O)O)cc2)c1C` [Example 254, (S)-2-{[(3S,8S)-3-[4-(3,4-Dichloro-benzyloxy)-phenyl]-7-(3,4-difluoro-phenylcarbamoyl)-2,3,6,7,8,9-hexahydro-[1,4]dioxino[2,3-g]isoquinoline-8-carbonyl]-amino}-3-[4-(2,3-dimethyl-pyridin-4-yl)-phenyl]-propionic acid] here?
A: 186 nM

Q: How did the EC50 turn out when `COCCNc1ccc(S(=O)(=O)N2Cc3cc4c(cc3C[C@H]2C(=O)N[C@@H](Cc2ccc(-c3ccc(C#N)cc3)cc2)C(=O)O)OCC(c2ccc(OCc3ccc(Cl)c(Cl)c3)cc2)O4)c(C)n1` (stereo in doubt) [Example 136, (S)-3-(4′-Cyano-biphenyl-4-yl)-2-({(S)-3-[4-(3,4-dichloro-benzyloxy)-phenyl]-7-[6-(2-methoxy-ethylamino)-2-methyl-pyridine-3-sulfonyl]-2,3,6,7,8,9-hexahydro-[1,4]dioxino[2,3-g]isoquinoline-8-carbonyl}-amino)-propionic acid] was run?
A: 50 nM

Q: Which EC50 does the source give for `Cc1nccc(-c2ccc(C[C@H](NC(=O)[C@@H]3Cc4cc5c(cc4CN3C(=O)N[C@H](C)c3ccccc3)O[C@@H](c3ccc(OCc4cc(Cl)cc(Cl)c4)cc3)CO5)C(=O)O)cc2)c1C` [Example 393, (S)-2-{[(3S,8S)-3-[4-(3,5-dichloro-benzyloxy)-phenyl]-7-((R)-1-phenyl-ethylcarbamoyl)-2,3,6,7,8,9-hexahydro-[1,4]dioxino[2,3-g]isoquinoline-8-carbonyl]-amino}-3-[4-(2,3-dimethyl-pyridin-4-yl)-phenyl]-propionic acid] here?
A: 74 nM

Q: For `CC[C@@H](c1ccccc1)N1Cc2cc3c(cc2C[C@H]1C(=O)N[C@@H](Cc1ccc(-c2ccnc(C)c2C)cc1)C(=O)O)OC[C@H](c1cccc(OCc2ccc(Cl)c(Cl)c2)c1)O3` [Example 419, (S)-2-{[(3S,8S)-3-[3-(3,4-Dichloro-benzyloxy)-phenyl]-7-((S)-1-phenyl-propyl)-2,3,6,7,8,9-hexahydro-[1,4]dioxino[2,3-g]isoquinoline-8-carbonyl]-amino}-3-[4-(2,3-dimethyl-pyridin-4-yl)-phenyl]-propionic acid], which EC50 is on record?
A: 90 nM

Q: `Cc1nccc(-c2ccc(C[C@H](NC(=O)[C@@H]3Cc4cc5c(cc4CN3C(=O)N3CCCC3)O[C@@H](c3ccc(OCc4ccc(Cl)c(Cl)c4)cc3)CO5)C(=O)O)cc2)c1C` [Example 313, (S)-2-{[(3S,8S)-3-[4-(3,4-Dichloro-benzyloxy)-phenyl]-7-(pyrrolidine-1-carbonyl)-2,3,6,7,8,9-hexahydro-[1,4]dioxino[2,3-g]isoquinoline-8-carbonyl]-amino}-3-[4-(2,3-dimethyl-pyridin-4-yl)-phenyl]-propionic acid] was tested. Which EC50 did it give?
A: 73 nM

Q: For `Cc1nccc(Oc2ccc(C[C@H](NC(=O)[C@@H]3Cc4cc5c(cc4CN3C(=O)NC(C)(C)C)O[C@@H](c3ccc(OCc4ccc(Cl)c(Cl)c4)cc3)CO5)C(=O)O)cc2)c1C` [Example 343, (S)-2-({(3S,8S)-7-tert-Butylcarbamoyl-3-[4-(3,4-dichloro-benzyloxy)-phenyl]-2,3,6,7,8,9-hexahydro-[1,4]dioxino[2,3-g]isoquinoline-8-carbonyl}-amino)-3-[4-(2,3-dimethyl-pyridin-4-yloxy)-phenyl]-propionic acid], which EC50 is on record?
A: 124 nM

Q: For `Cc1nccc(-c2ccc(C[C@H](NC(=O)[C@@H]3Cc4cc5c(cc4CN3C(=O)N[C@H](C)c3ccccc3)O[C@@H](c3ccc(OCc4ccc(Cl)c(Cl)c4)cc3)CO5)C(=O)O)cc2)c1C` [Example 240, (S)-2-{[(3S,8S)-3-[4-(3,4-Dichloro-benzyloxy)-phenyl]-7-((R)-1-phenyl-ethylcarbamoyl)-2,3,6,7,8,9-hexahydro-[1,4]dioxino[2,3-g]isoquinoline-8-carbonyl]-amino}-3-[4-(2,3-dimethyl-pyridin-4-yl)-phenyl]-propionic acid], which EC50 is on record?
A: 56 nM

Q: `CC[C@@H](c1ccccc1)N1Cc2cc3c(cc2C[C@H]1C(=O)N[C@@H](Cc1ccc(-c2ccnc(C)c2C)cc1)C(=O)O)OC[C@H](c1ccc(OC2CCCC2)cc1)O3` [Example 171, (S)-2-{[(3S,8S)-3-(4-Cyclopentyloxy-phenyl)-7-((S)-1-phenyl-propyl)-2,3,6,7,8,9-hexahydro-[1,4]dioxino[2,3-g]isoquinoline-8-carbonyl]-amino}-3-[4-(2,3-dimethyl-pyridin-4-yl)-phenyl]-propionic acid] was tested. Which EC50 did it give?
A: 118 nM
